# Source: patent US11160787B2, “4-(4-chlorophenyl)-5-methylene-pyrrol-2-one and 5-methylene-4-(p-tolyl)pyrrol-2-one for use in the treatment of gram negative bacterial infections” (priority 2016, dated 2021)
# Entries after “also recorded” stand apart in the source; their conditions may differ.
# How the values were obtained:
# PqsR [1] = biological target: T1, PqsR (Pseudomonas aeruginosa, UniProt Q9I4X0); conditions: read-out: EC50 of PQS for pqsA::lux expression; PAO1-L ΔpqsA pqsA::lux, without lactam; cited from earlier work
# T1 construct: By using the AQ-non producing P. aeruginosa strain PAO1-L ΔpqsA, pqsA::lux; endogenous in cells; host or cells: P. aeruginosa PAO1-L ΔpqsA, pqsA::lux
# T1 sequence (Q9I4X0 whole entry): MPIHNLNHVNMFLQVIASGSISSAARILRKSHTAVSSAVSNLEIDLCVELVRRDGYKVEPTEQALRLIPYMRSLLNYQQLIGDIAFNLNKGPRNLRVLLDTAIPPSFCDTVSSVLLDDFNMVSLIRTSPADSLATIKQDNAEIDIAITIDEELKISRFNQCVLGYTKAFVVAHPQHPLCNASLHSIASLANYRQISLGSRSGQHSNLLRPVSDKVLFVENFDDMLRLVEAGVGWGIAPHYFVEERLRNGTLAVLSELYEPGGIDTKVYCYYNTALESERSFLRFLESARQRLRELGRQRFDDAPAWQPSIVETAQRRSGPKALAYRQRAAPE
# [2] = test system: P. aeruginosa PAO1 pqsA::lux; test: pqsA::lux promoter fusion expression in P. aeruginosa PAO1-L biosensor (AQ-dependent quorum sensing); format: cell-based, Pseudomonas aeruginosa; conditions: for extent of inhibition of light output / pqsA expression at high concentrations: PAO1-L pqsA::lux; for IC50: Pseudomonas aeruginosa, PAO1, read-out: IC50 for inhibition of pqsA::lux expression
# Description: The expression of rhl and las AHL- and the pqsA AQ-synthase genes was evaluated using lux-based lasl (FIG. 1), rhll (FIG. 2) and pqsA (FIG. 3) chromosomally integrated promoter fusions. Luminescence was quantified as a function of bacterial growth. The applicant further determined that none of the lactams is growth inhibitory at 100 μM using a large number of strains (figure not shown).
# To determine the relative inhibitory activities (IC50s) of 4-(4-chlorophenyl)-5-methylene-pyrrol-2-one (Ref. 488) and 5-methylene-4-(p-tolyl)pyrrol-2-one (Ref. 491), dose response curves were constructed using the same biosensor strain (P. aeruginosa PAO1 pqsA::lux; Fletcher et al, 2007; Ilangovan et al 2013). This strain produces light in response to the endogenous production of AQs such as PQS and HHQ.
# PqsR [3] = biological target: T1, PqsR; test: PQS-dependent expression of pqsA::lux in AQ-non producing PAO1-L ΔpqsA (PqsR antagonism); format: cell-based
# Description: By using the AQ-non producing P. aeruginosa strain PAO1-L ΔpqsA, pqsA::lux, the EC50 value for the native PqsR agonist, PQS was calculated as ˜2 μM (Ilangovan et al. 2013).
# The experiment shown in FIG. 8 was then repeated using 4-(4-chlorophenyl)-5-methylene-pyrrol-2-one (Ref. 488) concentrations of 0, 50, 100 and 200 μM.
# A partial agonist is a molecule that can bind to and activate a receptor resulting in a non-complete response compared with a full agonist. […] This contrasts with its activity as an antagonist in the presence of 10 or 40 μM PQS.
# [4] = test system: P. aeruginosa strain PAO1-L; test: Pyocyanin production by PAO1-L, visually assessed; format: cell-based, Pseudomonas aeruginosa; conditions: 100 μM (vial 2), 8 h at 37° C., FIG. 5
# Description: Pyocyanin is a blue redox-active secondary metabolite and a putative signalling molecule in P. aeruginosa (Jayaseelan et al, 2014). The pyocyanin biosynthetic (phz) genes are regulated by QS and in part via the transcriptional regulator PqsR acting through PqsE (Rampioni et al 2011).
# Although qualitative, this observation offers further confirmation of the inhibitory effects of lactam 4-(4-chlorophenyl)-5-methylene-pyrrol-2-one (Ref. 488) on AQ-dependent QS.
# [5] = test system: PAO1-N ΔpqsAHR pqsA'::lux; test: PqsR-independent expression of pqsA'::lux in PAO1-N ΔpqsAHR; format: cell-based, Pseudomonas aeruginosa; conditions: presence or absence of 40 μM PQS, FIG. 11
# Description: PQS is capable of weakly activating pqsA in the absence of PqsR via a mechanism that is not fully understood but appears to depend on the iron chelating properties of PQS. The aim of this experiment was to clarify whether lactam 4-(4-chlorophenyl)-5-methylene-pyrrol-2-one (Ref. 488) is also inhibitory for pqsA expression via the PqsR independent pathway. As previously described, the pqsA′::lux biosensor based on the triple mutant PAO1-N ΔpqsAHR cannot produce AQs and lacks pqsR but still responds to exogenous PQS. This response is however much weaker that the PqsR-dependent response.
# PqsABCD = test: HHQ production by PAO1-N ΔpqsAHR pBBR-pqsABCD, TLC with AQ biosensor overlay; format: cell-based, Pseudomonas aeruginosa; conditions: 488 200 μM, overnight in LB, FIG. 13
# Description: To determine whether 4-(4-chlorophenyl)-5-methylene-pyrrol-2-one (Ref. 488) is capable of inhibiting the enzymes (PqsABCD) involved in AQ biosynthesis, the P. aeruginosa PAO1-N ΔpqsAHR was exploited. This mutant cannot produce AQs because the genes coding for the key biosynthetic enzymes (PqsA and PqsH) and regulation (PqsR) have been deleted. To restore AQ production in a PqsR-independent manner in PAO1-N ΔpqsA, the pqsABCD genes were introduced on a plasmid (pBBR pqsABCD; Niewerth et al. 2011). P. aeruginosa PAO1-N ΔpqsAHR and P. aeruginosa PAO1-N ΔpqsAHR pBBR pqsABCD were both incubated overnight in LB with and without 4-(4-chlorophenyl)-5-methylene-pyrrol-2-one (Ref. 488) (200 μM), resuspended to an OD600 1.0. The cultures were extracted with acidified ethyl acetate, the organic phase removed, dried and resuspended in methanol subjected to thin layer chromatography (TLC).
# After chromatography using a dichloromethane-methanol mobile phase, the TLC plates were overlaid with a thin agar layer containing the AQ biosensor strain PAO1-L ΔpqsA CTX::pqsA′-luxCDABE (Fletcher et al. 2007) incubated and examined for reporter output (FIG. 13). […] The biosensor strain produces light (FIG. 13 panel C) and pyocyanin (FIG. 13 panel B) in response to AQs that bind to PqsR and activate the pqsA promoter.
Compound,EC50 (PqsR [1]) [µM],extent of inhibition of light output / pqsA expression at high concentrations [2],IC50 [2] [µM],"relative inhibition of PqsR-dependent pqsA::lux promoter fusion in screening ([2]; lactams at 100 μM, FIG. 3)","mode of antagonism of PQS-dependent pqsA::lux expression (PqsR [3]; 488 at 0, 50, 100 and 200 μM, FIG. 9)","restoration of light output by PQS in the presence of 488 (PqsR [3]; 488 at 50, 100, 200 μM, PAO1-L ΔpqsA, FIG. 9)","partial agonist activity (activation of pqsA expression) (PqsR [3]; PAO1-L ΔpqsA pqsA'::lux, concentrations up to 800 μM, FIG. 10)","fold increase of PQS EC50 caused by the lactam (PqsR [3]; fixed concentration of 488 (215 μM), range of PQS concentrations) [fold]",pyocyanin production in culture supernatant [4],effect on PqsR-independent expression of pqsA [5],effect on HHQ biosynthesis (PqsABCD)
"CCCCCCCc1[nH]c2ccccc2c(=O)c1O [PQS, 2-heptyl-3-hydroxy-4-(1H)-quinolone]",~2,–,–,–,–,–,–,–,–,–,–
"C=C1NC(=O)C=C1c1ccc(Cl)cc1 [Ref. 488, 4-(4-chlorophenyl)-5-methylene-pyrrol-2-one]",–,completely inhibited light output; also recorded: fully knock out the PQS,22,most potent inhibitor,competitive antagonist,fully restoring light output in the presence of 50 μM but not 100 μM or 200 μM,no partial agonist activity,~15,absence of green pigmentation,small inhibitory effect,did not inhibit HHQ biosynthesis
"C=C1NC(=O)C=C1c1ccc(C)cc1 [Ref. 491, 5-methylene-4-(p-tolyl)pyrrol-2-one]",–,did not inhibit pqsA expression as strongly; also recorded: did not give complete knock out at higher concentration,44,–,–,–,–,–,–,–,–
